These results are taken from the NIST ThermoML archive (doi:10.1016/j.jct.2005.01.017).

Several values for one entry are separate records, joined by “and”; a condition that tells them apart may be missing. Equal values may be shown once. ± gives the expanded uncertainty stated by the source.

The conditions of data set [1]: 101 kPa, Liquid.
Data set [2] can be described thus: xn = mol fraction of the nth substance listed. Particulars: 101 kPa, Liquid, x1 = 1.

On to `Cc1ccccc1C` [1,2-dimethylbenzene], for which the mass density in data set [1] (293.15 K) is 878.6 ± 40 kg/m3; in data set [1] (303.15 K) it was 872.25 ± 40 kg/m3; in data set [1] (313.15 K) it was 859.67 ± 40 kg/m3; in data set [1] (323.15 K) it was 840.84 ± 40 kg/m3; in data set [1] (333.15 K), 815.74 ± 40 kg/m3; in data set [1] (343.15 K), 784.38 ± 40 kg/m3.
On to `Cc1ccccc1C` [1,2-dimethylbenzene] + CC1COC(=O)O1, for which the mass density in data set [2] (293.15 K) is recorded as 878.6 ± 40 kg/m3; in data set [2] (303.15 K) it was 872.25 ± 40 kg/m3; in data set [2] (313.15 K), 859.67 ± 40 kg/m3; in data set [2] (323.15 K), 840.84 ± 40 kg/m3; in data set [2] (333.15 K) it was 815.74 ± 40 kg/m3; in data set [2] (343.15 K) it was 784.38 ± 40 kg/m3.
Consider `Cc1cccc(C)c1` [1,3-dimethylbenzene], for which the mass density is on record as 864.2 ± 1.9 kg/m3 in data set [1] (293.15 K); 855.76 ± 2 kg/m3 in data set [1] (303.15 K); 847.11 ± 2.1 kg/m3 in data set [1] (313.15 K); 838.27 ± 2.1 kg/m3 in data set [1] (323.15 K); 829.22 ± 2.2 kg/m3 in data set [1] (333.15 K); 819.97 ± 2.3 kg/m3 in data set [1] (343.15 K). The mass density in data set [1] (353.15 K) was 810.51 ± 2.3 kg/m3.
For the molecule `Cc1cccc(C)c1` [1,3-dimethylbenzene] + CC1COC(=O)O1, the mass density is 864.2 ± 40 kg/m3 in data set [2] (293.15 K); 855.76 ± 40 kg/m3 in data set [2] (303.15 K); 847.11 ± 40 kg/m3 in data set [2] (313.15 K); 838.27 ± 40 kg/m3 in data set [2] (323.15 K); 829.22 ± 40 kg/m3 in data set [2] (333.15 K); 819.97 ± 40 kg/m3 in data set [2] (343.15 K). The mass density in data set [2] (353.15 K) was 810.51 ± 40 kg/m3.
On to `Cc1ccc(C)cc1` [1,4-dimethylbenzene], for which the mass density in data set [1] (293.15 K) amounted to 861 ± 1.8 kg/m3; in data set [1] (303.15 K), 852.28 ± 1.9 kg/m3; in data set [1] (313.15 K) it was 843.58 ± 1.9 kg/m3; in data set [1] (323.15 K) it was 834.92 ± 2 kg/m3; in data set [1] (333.15 K) it was 826.27 ± 2.1 kg/m3; in data set [1] (343.15 K), 817.66 ± 2.2 kg/m3. For the same molecule, the mass density in data set [1] (353.15 K) is reported as 809.07 ± 2.2 kg/m3.
Turning to `Cc1ccc(C)cc1` [1,4-dimethylbenzene] + CC1COC(=O)O1, the mass density in data set [2] (293.15 K) was found to be 861 ± 40 kg/m3; in data set [2] (303.15 K), 852.28 ± 40 kg/m3; in data set [2] (313.15 K) it was 843.58 ± 40 kg/m3; in data set [2] (323.15 K), 834.92 ± 40 kg/m3; in data set [2] (333.15 K) it was 826.27 ± 40 kg/m3; in data set [2] (343.15 K), 817.66 ± 40 kg/m3. The mass density in data set [2] (353.15 K) was determined as 809.07 ± 40 kg/m3.
Take `CC1COC(=O)O1` (configuration not stated) [4-methyl-1,3-dioxolan-2-one]: the mass density is 1200.25 ± 40 kg/m3 in data set [1] (293.15 K); 1180.55 ± 40 kg/m3 and 1180.56 ± 40 kg/m3 in data set [1] (303.15 K); 1161.28 ± 40 kg/m3 in data set [1] (313.15 K); 1142.43 ± 40 kg/m3 in data set [1] (323.15 K); 1123.99 ± 40 kg/m3 in data set [1] (333.15 K); 1105.98 ± 40 kg/m3 in data set [1] (343.15 K). For the same molecule, the mass density in data set [1] (353.15 K) stood at 1088.38 ± 40 kg/m3.

As usually defined, the mass density is the mass of a sample divided by its volume.
